Data reported in US7834011B2, “Heterocyclylalkyl derivatives as novel inhibitors of histone deacetylase” (Janssen Pharmaceutica N.V., priority 2006, dated 2010).

Assays:
[1] = target: histone deacetylase (HeLa nuclear extracts); experiment: In vitro assay for inhibition of histone deacetylase with fluorescent-labelled substrate (Fluor de Lys); type: biochemical
Excerpt: The in vitro assay for inhibition of histone deacetylase (see example C.1) measures the inhibition of HDAC enzymatic activity obtained with the compounds of formula (I).
The HDAC Fluorescent Activity Assay/Drug Discovery Kit of Biomol (cat. No: AK-500-0001) was used. The HDAC Fluorescent Activity Assay is based on the Fluor de Lys (Fluorogenic Histone deAcetylase Lysyl) substrate and developer combination. The Fluor de Lys substrate, comprises an acetylated lysine side chain. Deacetylation of the substrate sensitizes the substrate so that, in the second step, treatment with the Fluor de Lys developer produces a fluorophore.
HeLa nuclear extracts (supplier: Biomol) were incubated at 60 μg/ml with 75 μM of substrate. The Fluor de Lys substrate was added in a buffer containing 25 mM Tris, 137 mM NaCl, 2.7 mM KCl and 1 mM MgCl2.6H2O at pH 7.4. After 30 min, 1 volume of the developer was added. The fluorophore was excited with 355 nm light and the emitted light (450 nm) was be detected on a fluorometric plate reader.
For each experiment, controls (containing HeLa nuclear extract and buffer), a blank incubation (containing buffer but no HeLa nuclear extract) and samples (containing compound dissolved in DMSO and further diluted in buffer and HeLa nuclear extract) were run in parallel. In first instance, compounds were tested at a concentration of 10^−5M. […] All sample were tested 4 times. In each test the blank value was subtracted from both the control and the sample values. The control sample represented 100% of substrate deactylation. For each sample the fluorescence was expressed as a percentage of the mean value of the controls. […] Herein the effects of test compounds are expressed as pIC50 (the negative log value of the IC50-value) (see Table F-2).

[2] = Kinetic solubility in aqueous media C.3.a (nephelometer); type: physicochemical; conditions: aqueous buffer, kinetic from dmso stock; phosphate citrate buffer pH 7.4, turbidity; read-out: Kinetic solubility score (C.3.a)
Method: The solubility of a compound measures the ability of a compound to stay in solution. In a first method the ability of a compound to stay in aqueous solution upon dilution (see example C.3.a) is measured. DMSO-stock solutions are diluted with a single aqueous buffer solvent in 3 consecutive steps. For every dilution turbidity is measured with a nephelometer.
In the first dilution step, 10 μl of a concentrated stock-solution of the active compound, solubilized in DMSO (5 mM), was added to 100 μl phosphate citrate buffer pH 7.4 and mixed. In the second dilution step, an aliquot (20 μl) of the first dilution step was further dispensed in 100 μl phosphate citrate buffer pH 7.4 and mixed. Finally, in the third dilution step, a sample (20 μl) of the second dilution step was further diluted in 100 μl phosphate citrate buffer pH 7.4 and mixed. All dilutions were performed in 96-well plates. Immediately after the last dilution step the turbidity of the three consecutive dilution steps were measured with a nephelometer. Dilution was done in triplicate for each compound to exclude occasional errors. Based on the turbidity measurements a ranking is performed into 3 classes. Compounds with high solubility obtained a score of 3 and for this compounds the first dilution is clear. Compounds with medium solubility obtained a score of 2. […]

In the case of Cn1c(CNCC2CCN(c3ncc(C(=O)NO)cn3)CC2)nc2ccccc21 [Compound 3], the “Enzymatic activity pIC50 C.1” value [1] is reported as 8.1 and the solubility kinetic [2] is reported as > 455 µM.
